Assay results: US20140370541A1, “CELL CULTURE LIQUID/GAS-PHASE CHAMBER DEVICES AND RELATED METHODS, AND EXEMPLARY USE FOR MEASURING ACCUMULATION OF GAS-PHASE NITRIC OXIDE IN DIFFERENTIATED CULTURES OF NORMAL AND CYSTIC FIBROSIS AIRWAY EPITHELIAL CELLS” (UNIVERSITY OF NORTH CAROLINA, priority 2012, published 2014)
Several values for one entry are separate records, joined by “and”; a condition that tells them apart may be missing. Identical values can stand only once. Entries after “also recorded” stand apart in the source; their conditions may differ.

How the values were obtained:
[1] = system: iNOS mRNA in control (Normal) HBE cells; assay: RT-PCR of NOS isoform RNA in control HBE cultures; assay type: cell-based, human
Protocol: To examine the effect of an inflammatory cytokine on NO production, well-differentiated cultures of normal HBE cells were treated with different concentrations of interferon-gamma (IFN-γ), a potent inducer of iNOS (7-10). Total RNA was isolated and RT-PCR was used to qualitatively assess the level of the NOS isoforms. […] To examine the effect of IFN-γ on gNO, well-differentiated cultures (mean age 128 days) of control HBE cells were treated with interferon-gamma (IFN-γ) overnight. Treatment with 100 ng/ml of IFN-γ increased the level of accumulated NO>50-fold (see FIG. 5), averaging 576+/−200 ppb (n=22; 8 donors). The IFN-γ induced increase in NO was highly significant (p=6.5×10E-6). Increased levels of iNOS RNA and gNO were observed as early as 6 hours after treatment (data not shown), and levels of NO continued to increase for at least 24 hours.

[2] = system: control human bronchial epithelial (HBE) cells; assay: Gas-phase NO (gNO) accumulation above control HBE cultures in gas-tight liquid/gas-phase chamber; assay type: cell-based; conditions: for gas-phase level of NO: differentiated HBE, IFN-γ
Protocol: (§1) In preliminary studies, attempts were made to measure gNO release from well-differentiated cultures of HBE cells under the conditions described by Suresh et al. (21). Because some difficulties were encountered in obtaining a reproducible, gas-tight seal, both around the holes drilled in the plastic for the fittings and around the lid of the dish using parafilm, the procedure was modified in the following manner. First, 120 ml Teflon® jars (Savillex) were fitted with silicone O-rings to create a leak-proof seal. Two holes were drilled in the lid and fitted with stainless steel luer-lock adapters that were fastened tightly using stainless steel washers and nuts. The luer-lock adapters were fitted with two 3-way plastic stop-cocks to allow connections to be made to the Sievers 270B NO or other analyzers and room or zero air. Manufactured Teflon partition was inserted into the jar to hold the transwells containing cells and to separate the liquid compartment from the headspace.
(§2) For measurement of gNO production by HBE cultures, ALI media was added to each chamber. The apical surface of each culture was washed with 1 ml of PBS for 5 minutes at 37° C. to remove mucus and cell debris. Unless otherwise specified, 50 μl of PBS was added to the apical surface of the culture to provide a thin layer of ASL and allow cilia to beat freely. Three, 12 mm cultures were placed in each chamber, and the chambers were placed in a 37° C./5% CO2 incubator with the lids removed for 5 minutes to allow equilibration with incubator air. The lids were then replaced and tightened with both stop-cocks fully closed. After the appropriate incubation time, the chambers were removed from the incubator and connected to an NO analyzer. The stop-cocks were simultaneously opened to allow room air into the chamber while sample was being withdrawn into the analyzer for measurement. For these studies, NO was measured using a Sievers 280B nitric oxide analyzer with a flow rate of 40 ml/min. For the measurements of gNO production by nasal cultures the flow rate was increased to 500 ml/min. The analyzer was routinely calibrated using NO free air and nitric oxide standards, and zeroed before each experimental run. The level of NO was determined in room air and was usually <5 ppb. The analog output from the NO analyzer was directed into a MACLAB analog-digital converter and computer for data analyses and archiving. All NO measurements are reported as the peak concentration obtained during the sampling period, usually within the first 15 seconds.
(§3) Ciliated cells first become visible ˜14 days after establishment of an air-liquid interface, and the number of ciliated cells continues to increase with time so that by ˜31 days, the cultures typically consist of a multi-layered, pseudo-stratified, heavily ciliated epithelium, as illustrated in FIG. 1B. FIG. 1B is a micrograph 12 of differentiated cultures 14 consisting of a pseudo-stratified epithelium 16 stained with hematoxylin and eosin with abundant ciliated cells at the apical surface 18. To measure gas-phase NO (gNO) production, the apical surface of the cultures were washed, a small volume of PBS (50 ul) was added to wet the surface, and the cultures were incubated overnight (19-20 hours) in a gas-tight, NO inert, cell culture liquid/gas-phase chamber developed for the measurement of gNO (schematically shown in FIG. 2A).

HBE cells = assay: Total nitrate/nitrite (NOx) in basal media; assay type: cell-based, human; conditions: cultures treated with IFN-γ
Protocol: Measurements of total nitrite/nitrate in apical and basolateral media samples were performed using the Parameter kit (R&D Systems, Minneapolis, Minn.) according to the manufacturer's instructions. Briefly, a 0.5 ml sample of media was obtained from the basolateral chamber at the conclusion of the experiment and frozen at −20° C. until analyzed. Each sample was assayed in duplicate and compared to a standard curve, which was prepared in the same ALI media used to culture the cells.
Nitric oxide present in biological fluids rapidly reacts with other molecules to produce a variety of products. In aqueous solutions, nitrite and nitrate are two of the major metabolites of NO reaction. To determine if the level of NO products in the basal media increased in a similar manner as the levels of gNO, the total amount of nitrate/nitrite (NOx) in a subset of experiments using the Griese reaction was measured. As expected, the level of nitrate/nitrite in the media was higher in cultures treated with IFN-γ than in untreated cultures, averaging 9.3+/−3.1 μM in treated cultures compared to 2.0+/−0.5 μM in untreated cultures (p=0.005; donors=7, 3). The level of NOx in the media increased proportionally to the level of gNO, with a correlation coefficient of 0.74 (y=2.33x+0.28; R^2=0.74), as shown in the chart 92 in FIG. 9. […]

[3] = system: CF human bronchial epithelial (HBE) cells; assay: Gas-phase NO (gNO) accumulation above CF HBE cultures in gas-tight liquid/gas-phase chamber; assay type: cell-based
Protocol: as §1, §2
as §3, with “2A). […]” for “2A).”

[4] = system: iNOS mRNA in cystic fibrosis (CF) HBE cells; assay: RT-PCR of iNOS mRNA in CF HBE cultures; assay type: cell-based, human; conditions: differentiated CF HBE stimulated with IFN-γ, qualitative RT-PCR
[5] = undifferentiated control HBE cultures, IFN-γ treatment

Compound | levels of nNOS and eNOS ([1]; control HBE treated with IFN-γ, RT-PCR (not shown)) | level of iNOS RNA / iNOS expression ([1]; differentiated control HBE, increasing concentrations of IFN-γ, qualitative RT-PCR) | NO concentration ([2]; 6 hr incubation with 10 μL INF-γ (100 ng/ml) in HBSS medium, FIG. 4B) | gas-phase level of NO ([2]; 6 hours, 50 μL PBS) | gas-phase level of NO ([2]; 6 hours, submerged with 420 μL PBS) | gas-phase level of NO ([2]; 20 hours, 50 μL PBS) | gas-phase level of NO ([2]; 20 hours, submerged with 420 μL PBS) | fold increase of accumulated gNO over baseline ([2]; differentiated control HBE cultures, 100 ng/ml IFN-γ) | level of accumulated gNO ([2]; differentiated control HBE cultures, 100 ng/ml IFN-γ overnight (19-20 hours), 50 μl PBS apical) | fold increase in gNO [2, 5] | level of gNO [2, 5] | effect on gNO ([2]; undifferentiated cultures, IFN-γ treatment) | level of nitrate/nitrite in the media (HBE cells) | level of gNO ([3]; differentiated CF HBE cultures, IFN-γ 100 ng/ml, 19-20 hours) | level of gNO ([3]; differentiated CF cells stimulated with IFN-γ, submerged with 420 μl PBS) | level of gNO ([3]; differentiated CF cells stimulated with IFN-γ, submersion experiments, not submerged) | ratio of gNO, control cells versus CF cells after IFN-γ treatment ([3]; differentiated cultures treated with IFN-γ) | level of gNO ([3]; undifferentiated CF cells after stimulation with IFN-γ) | iNOS expression [4] | inhibition of gNO production ([2]; control HBE cells, preliminary experiment FIG. 4A, after IFN-γ treatment)
interferon gamma [IFN-γ] | relatively unchanged | induced iNOS expression; also recorded: clear increase | marked elevation | 379+/−210 ppb | 6.6+/−5.6 ppb | 1642.5+/−31 ppb | 26.5+/−6.4 ppb | > 50 fold and ~50 fold | 576 ppb and 576+/−200 ppb and > 500 ppb | ~2 fold | 9.5+/−3.3 ppb and ~10 ppb | no significant effect | 9.3 ± 3.1 µM | 192 ppb and 192.3+/−68.9 ppb | 11+/−4.3 ppb | 98+/−35 ppb | 3 fold | 15.6+/−6.8 ppb | increase in iNOS expression | –
COC(=O)[C@@H](N)CCCNC(=N)N[N+](=O)[O-] [L-NAME, reference compound] | – | – | – | – | – | – | – | – | – | – | – | – | – | – | – | – | – | – | – | inhibited completely
